According to the Kinase Knowledgebase extract (Sharma et al. 2016):

Tests used:
EGFR (human) [1] = target: EGFR (human) (UniProt P00533); settings: HN5
EGFR (human) [2] = target: EGFR (human) (UniProt P00533); settings: hn5
EGFR (human) [3] = target: EGFR (human) (UniProt P00533); settings: a431
EGFR (human) [4] = target: EGFR (human) (UniProt P00533); settings: caski
EGFR (human) [5] = target: EGFR (human) (UniProt P00533); settings: rpmi8226
EGFR (human) [6] = target: EGFR (human) (UniProt P00533); settings: k562
EGFR (human) [7] = target: EGFR (human) (UniProt P00533); settings: ekvx
EGFR (human) [8] = target: EGFR (human) (UniProt P00533); settings: hop-62
EGFR (human) [9] = target: EGFR (human) (UniProt P00533); settings: h23
EGFR (human) [10] = target: EGFR (human) (UniProt P00533); settings: h460
EGFR (human) [11] = target: EGFR (human) (UniProt P00533); settings: h522
EGFR (human) [12] = target: EGFR (human) (UniProt P00533); settings: colo-205
EGFR (human) [13] = target: EGFR (human) (UniProt P00533); settings: hcc2998
EGFR (human) [14] = target: EGFR (human) (UniProt P00533); settings: hct 116
EGFR (human) [15] = target: EGFR (human) (UniProt P00533); settings: hct-15
EGFR (human) [16] = target: EGFR (human) (UniProt P00533); settings: ht-29
EGFR (human) [17] = target: EGFR (human) (UniProt P00533); settings: km-12
EGFR (human) [18] = target: EGFR (human) (UniProt P00533); settings: sw 620
EGFR (human) [19] = target: EGFR (human) (UniProt P00533); settings: sf268
EGFR (human) [20] = target: EGFR (human) (UniProt P00533); settings: sf-539
EGFR (human) [21] = target: EGFR (human) (UniProt P00533); settings: snb-19
EGFR (human) [22] = target: EGFR (human) (UniProt P00533); settings: snb-75
EGFR (human) [23] = target: EGFR (human) (UniProt P00533); settings: m14
EGFR (human) [24] = target: EGFR (human) (UniProt P00533); settings: sk-mel-2
EGFR (human) [25] = target: EGFR (human) (UniProt P00533); settings: sk-mel-28
EGFR (human) [26] = target: EGFR (human) (UniProt P00533); settings: sk-mel-5
EGFR (human) [27] = target: EGFR (human) (UniProt P00533); settings: uacc62
EGFR (human) [28] = target: EGFR (human) (UniProt P00533); settings: igr-ovi
EGFR (human) [29] = target: EGFR (human) (UniProt P00533); settings: ovcar-3
EGFR (human) [30] = target: EGFR (human) (UniProt P00533); settings: ovcar-4
EGFR (human) [31] = target: EGFR (human) (UniProt P00533); settings: ovcar-5
EGFR (human) [32] = target: EGFR (human) (UniProt P00533); settings: 786-0
EGFR (human) [33] = target: EGFR (human) (UniProt P00533); settings: achn
EGFR (human) [34] = target: EGFR (human) (UniProt P00533); settings: caki-1
EGFR (human) [35] = target: EGFR (human) (UniProt P00533); settings: rxf-393
EGFR (human) [36] = target: EGFR (human) (UniProt P00533); settings: sn12c
EGFR (human) [37] = target: EGFR (human) (UniProt P00533); settings: uo-31
EGFR (human) [38] = target: EGFR (human) (UniProt P00533); settings: pc-3
EGFR (human) [39] = target: EGFR (human) (UniProt P00533); settings: mcf-7
EGFR (human) [40] = target: EGFR (human) (UniProt P00533); settings: mcf7/adr-res
EGFR (human) [41] = target: EGFR (human) (UniProt P00533); settings: mda-mb-231/atcc
EGFR (human) [42] = target: EGFR (human) (UniProt P00533); settings: h7 578t
EGFR (human) [43] = target: EGFR (human) (UniProt P00533); settings: mda-mb-435
EGFR (human) [44] = target: EGFR (human) (UniProt P00533); settings: bt-549
EGFR (human) [45] = target: EGFR (human) (UniProt P00533); settings: t-47d
EGFR (human) [46] = target: EGFR (human) (UniProt P00533); settings: mg-mid
EGFR (human) [47] = target: EGFR (human) (UniProt P00533); settings: delta
EGFR (human) [48] = target: EGFR (human) (UniProt P00533); settings: ccrf-cem leukemia cell
EGFR (human) [49] = target: EGFR (human) (UniProt P00533); settings: sr
EGFR (human) [50] = target: EGFR (human) (UniProt P00533); settings: molt-4

Sequence of EGFR (human) (P00533 whole entry, looked up): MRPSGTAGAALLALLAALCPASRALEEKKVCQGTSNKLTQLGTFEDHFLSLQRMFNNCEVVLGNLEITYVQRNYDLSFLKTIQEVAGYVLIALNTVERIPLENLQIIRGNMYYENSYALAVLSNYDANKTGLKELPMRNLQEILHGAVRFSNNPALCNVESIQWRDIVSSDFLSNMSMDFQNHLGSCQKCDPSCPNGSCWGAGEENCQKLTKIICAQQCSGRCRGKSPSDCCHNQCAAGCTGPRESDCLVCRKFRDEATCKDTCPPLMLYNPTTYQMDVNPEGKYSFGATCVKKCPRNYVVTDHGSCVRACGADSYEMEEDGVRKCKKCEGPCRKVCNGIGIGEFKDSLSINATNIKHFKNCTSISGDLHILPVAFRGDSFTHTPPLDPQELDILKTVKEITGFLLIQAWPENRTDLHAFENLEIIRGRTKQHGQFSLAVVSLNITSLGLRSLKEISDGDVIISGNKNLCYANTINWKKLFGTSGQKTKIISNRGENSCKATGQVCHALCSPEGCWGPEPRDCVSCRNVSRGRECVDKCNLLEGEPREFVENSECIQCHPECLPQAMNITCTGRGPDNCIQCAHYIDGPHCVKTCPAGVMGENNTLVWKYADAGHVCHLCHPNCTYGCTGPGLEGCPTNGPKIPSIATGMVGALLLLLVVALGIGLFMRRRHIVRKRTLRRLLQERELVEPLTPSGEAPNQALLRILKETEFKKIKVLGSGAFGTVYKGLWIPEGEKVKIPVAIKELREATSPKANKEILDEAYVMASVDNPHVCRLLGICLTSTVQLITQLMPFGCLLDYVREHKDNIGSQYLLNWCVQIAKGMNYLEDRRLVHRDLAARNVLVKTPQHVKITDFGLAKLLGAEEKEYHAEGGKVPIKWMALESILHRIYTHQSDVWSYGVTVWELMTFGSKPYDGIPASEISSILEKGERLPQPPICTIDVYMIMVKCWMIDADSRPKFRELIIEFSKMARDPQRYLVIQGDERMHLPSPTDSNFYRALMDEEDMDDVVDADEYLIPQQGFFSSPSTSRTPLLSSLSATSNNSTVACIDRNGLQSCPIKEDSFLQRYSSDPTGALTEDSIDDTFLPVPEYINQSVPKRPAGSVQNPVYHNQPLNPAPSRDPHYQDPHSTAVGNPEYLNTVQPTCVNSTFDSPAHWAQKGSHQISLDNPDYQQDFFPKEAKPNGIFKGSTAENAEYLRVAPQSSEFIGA

N#CC(C#N)=Cc1csc([N+](=O)[O-])c1
Settings	GI50 [µM]	IC50 [µM]
EGFR (human) [1]	–	23
EGFR (human) [2]	–	40.4
EGFR (human) [3]	–	28.4
EGFR (human) [4]	–	40
EGFR (human) [5]	31.6	–
EGFR (human) [6]	27.5	–
EGFR (human) [7]	> 100	–
EGFR (human) [8]	25.7	–
EGFR (human) [9]	30.2	–
EGFR (human) [10]	54.9	–
EGFR (human) [11]	15.1	–
EGFR (human) [12]	27.5	–
EGFR (human) [13]	26.9	–
EGFR (human) [14]	16.2	–
EGFR (human) [15]	33.9	–
EGFR (human) [16]	21.9	–
EGFR (human) [17]	35.5	–
EGFR (human) [18]	43.6	–
EGFR (human) [19]	38.9	–
EGFR (human) [20]	41.7	–
EGFR (human) [21]	60.2	–
EGFR (human) [22]	25.1	–
EGFR (human) [23]	17.8	–
EGFR (human) [24]	26.9	–
EGFR (human) [25]	16.2	–
EGFR (human) [26]	15.8	–
EGFR (human) [27]	17.8	–
EGFR (human) [28]	24	–
EGFR (human) [29]	21.9	–
EGFR (human) [30]	28.8	–
EGFR (human) [31]	59	–
EGFR (human) [32]	33.9	–
EGFR (human) [33]	19.5	–
EGFR (human) [34]	24.5	–
EGFR (human) [35]	17.4	–
EGFR (human) [36]	34.7	–
EGFR (human) [37]	17.8	–
EGFR (human) [38]	38	–
EGFR (human) [39]	41.7	–
EGFR (human) [40]	37.1	–
EGFR (human) [41]	26.3	–
EGFR (human) [42]	28.2	–
EGFR (human) [43]	20.9	–
EGFR (human) [44]	27.5	–
EGFR (human) [45]	22.9	–
EGFR (human) [46]	30.2	–
EGFR (human) [47]	1.99	–
EGFR (human) [48]	23.4	–
EGFR (human) [49]	30.2	–
EGFR (human) [50]	23.4	–

N#CC(C#N)=C(N)/C(C#N)=C/c1ccc([N+](=O)[O-])s1
Settings	GI50 [µM]	IC50 [µM]
EGFR (human) [1]	–	12.2
EGFR (human) [2]	–	8.4
EGFR (human) [3]	–	6.07
EGFR (human) [4]	–	9.24
EGFR (human) [5]	5.01	–
EGFR (human) [6]	3.89	–
EGFR (human) [7]	19.5	–
EGFR (human) [8]	19.5	–
EGFR (human) [9]	16.6	–
EGFR (human) [10]	23.4	–
EGFR (human) [11]	11	–
EGFR (human) [12]	15.1	–
EGFR (human) [13]	15.8	–
EGFR (human) [14]	3.39	–
EGFR (human) [15]	17.8	–
EGFR (human) [16]	15.8	–
EGFR (human) [17]	18.2	–
EGFR (human) [18]	3.23	–
EGFR (human) [19]	22.4	–
EGFR (human) [20]	23.4	–
EGFR (human) [21]	17.8	–
EGFR (human) [22]	14.8	–
EGFR (human) [23]	12	–
EGFR (human) [24]	19.5	–
EGFR (human) [25]	17	–
EGFR (human) [26]	7.58	–
EGFR (human) [27]	79.4	–
EGFR (human) [28]	7.24	–
EGFR (human) [29]	15.5	–
EGFR (human) [30]	15.5	–
EGFR (human) [31]	26.9	–
EGFR (human) [32]	19.9	–
EGFR (human) [33]	19.9	–
EGFR (human) [34]	18.2	–
EGFR (human) [35]	9.33	–
EGFR (human) [36]	13.5	–
EGFR (human) [37]	18.2	–
EGFR (human) [38]	19.9	–
EGFR (human) [39]	10.5	–
EGFR (human) [40]	21.4	–
EGFR (human) [41]	17	–
EGFR (human) [42]	18.6	–
EGFR (human) [43]	12.3	–
EGFR (human) [44]	12.9	–
EGFR (human) [45]	6.91	–
EGFR (human) [46]	13.2	–
EGFR (human) [47]	4.07	–
EGFR (human) [48]	4.17	–
EGFR (human) [49]	12	–
EGFR (human) [50]	5.89	–

CCOC(=O)/C(C#N)=C/c1ccc([N+](=O)[O-])s1
Settings	GI50 [µM]	IC50 [µM]
EGFR (human) [1]	–	34
EGFR (human) [2]	–	5.4
EGFR (human) [3]	–	4.6
EGFR (human) [4]	–	6.94
EGFR (human) [5]	2.34	–
EGFR (human) [6]	1.2	–
EGFR (human) [7]	15.5	–
EGFR (human) [8]	14.8	–
EGFR (human) [9]	2.63	–
EGFR (human) [10]	6.92	–
EGFR (human) [11]	1.69	–
EGFR (human) [12]	1.62	–
EGFR (human) [13]	3.47	–
EGFR (human) [14]	1.48	–
EGFR (human) [15]	2.19	–
EGFR (human) [16]	2.04	–
EGFR (human) [17]	6.92	–
EGFR (human) [18]	1.48	–
EGFR (human) [19]	6.16	–
EGFR (human) [20]	5.75	–
EGFR (human) [21]	14.8	–
EGFR (human) [22]	7.58	–
EGFR (human) [23]	1.74	–
EGFR (human) [24]	3.31	–
EGFR (human) [25]	2.95	–
EGFR (human) [26]	1.2	–
EGFR (human) [27]	1.35	–
EGFR (human) [28]	1.66	–
EGFR (human) [29]	2.04	–
EGFR (human) [30]	1.7	–
EGFR (human) [31]	1.95	–
EGFR (human) [32]	10.7	–
EGFR (human) [33]	1.9	–
EGFR (human) [34]	2.14	–
EGFR (human) [35]	1.7	–
EGFR (human) [36]	5.75	–
EGFR (human) [37]	1.86	–
EGFR (human) [38]	2.95	–
EGFR (human) [39]	3.09	–
EGFR (human) [40]	3.47	–
EGFR (human) [41]	1.86	–
EGFR (human) [42]	3.47	–
EGFR (human) [43]	2.34	–
EGFR (human) [44]	0.871	–
EGFR (human) [45]	2.75	–
EGFR (human) [46]	3.47	–
EGFR (human) [47]	12	–
EGFR (human) [48]	1.55	–
EGFR (human) [49]	3.02	–
EGFR (human) [50]	1.74	–
